Like-named read-outs stand apart in the source and are kept apart here.
How the values were obtained:
[1] = target: T. brucei N-myristoyl transferase (Trypanosoma brucei brucei (strain 927/4 GUTat10.1), UniProt Q388H8); assay: biochemical; type: biochemical
human NMT-1 = human NMT-1 (Homo sapiens (Human), UniProt P30419); assay: NMT enzyme inhibition scintillation proximity assay, human NMT-1; type: biochemical
[2] = tested on: Trypanosome (T. brucei brucei); assay: In-vitro antitrypanosomal efficacy assay (cell growth, resazurin); type: cell-based
[3] = value with no enzyme tag in the cell, taken as T. brucei NMT, read-out: IC50 (μM) NMT Enzyme
[4] = T. brucei NMT, value without parentheses, read-out: IC50 (μM) NMT Enzyme (T. brucei NMT)
[5] = Human NMT-1, value in parentheses, read-out: IC50 (μM) NMT Enzyme (HuNMT-1)
[6] = T. brucei brucei, blood stream form, variant 221
[7] = value printed without enzyme tag in the NMT Enzyme column (taken as T. brucei NMT), read-out: IC50 (μM) NMT Enzyme

Sequence of human NMT-1 (P30419 whole entry): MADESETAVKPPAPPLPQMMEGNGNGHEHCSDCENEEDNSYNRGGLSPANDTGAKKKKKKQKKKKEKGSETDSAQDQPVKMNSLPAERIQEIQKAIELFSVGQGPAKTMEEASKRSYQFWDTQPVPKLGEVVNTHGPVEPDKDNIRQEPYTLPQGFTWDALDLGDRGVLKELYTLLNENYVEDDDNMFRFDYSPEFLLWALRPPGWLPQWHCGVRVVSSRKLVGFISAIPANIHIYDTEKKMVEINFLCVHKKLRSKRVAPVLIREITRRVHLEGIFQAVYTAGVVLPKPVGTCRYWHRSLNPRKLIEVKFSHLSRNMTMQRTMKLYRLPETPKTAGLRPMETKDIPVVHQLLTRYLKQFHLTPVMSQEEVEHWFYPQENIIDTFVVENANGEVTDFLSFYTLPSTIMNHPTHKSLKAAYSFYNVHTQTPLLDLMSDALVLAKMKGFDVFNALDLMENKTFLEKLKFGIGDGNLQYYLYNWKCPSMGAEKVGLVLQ
Sequence of T. brucei N-myristoyl transferase (Q388H8 1-446): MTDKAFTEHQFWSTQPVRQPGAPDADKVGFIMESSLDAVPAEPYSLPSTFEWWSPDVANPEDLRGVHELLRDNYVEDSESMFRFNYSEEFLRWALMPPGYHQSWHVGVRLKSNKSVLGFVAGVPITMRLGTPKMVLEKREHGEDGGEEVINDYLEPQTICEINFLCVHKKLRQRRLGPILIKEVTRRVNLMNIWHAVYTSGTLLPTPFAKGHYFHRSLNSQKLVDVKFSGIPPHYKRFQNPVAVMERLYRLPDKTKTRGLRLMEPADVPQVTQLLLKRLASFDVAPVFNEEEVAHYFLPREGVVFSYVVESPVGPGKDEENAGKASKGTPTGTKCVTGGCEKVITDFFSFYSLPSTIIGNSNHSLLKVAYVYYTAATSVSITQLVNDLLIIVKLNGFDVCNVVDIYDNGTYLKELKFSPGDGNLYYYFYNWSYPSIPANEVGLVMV

| IC50 [1, 3] | IC50 [1, 7] | SMILES | ED50 (μM) T. brucei ([2]; T. brucei cell growth) | also measured |
| --- | --- | --- | --- | --- |
| 0.182 µM | – | Cc1ccncc1N[S+](=O)([O-])c1c(Cl)cc(-c2ccnc(N3CCNCC3)c2)cc1Cl [DDD88322] | 1.93 µM | IC50 (human NMT-1; HuNMT-1): 1.5 µM |
| > 100 µM | – | Cc1c(N[S+](=O)([O-])c2ccc(Br)cc2)cnn1C [DDD88326] | >10 µM | IC50 (human NMT-1; HuNMT-1): > 100 µM |
| > 100 µM | – | Cn1cc(N[S+](=O)([O-])c2c(Cl)cc(Br)cc2Cl)cn1 [DDD88325] | >10 µM | IC50 (human NMT-1; HuNMT-1): > 100 µM |
| 44.1 µM | – | Cc1nn(C)cc1N[S+](=O)([O-])c1ccc(Br)cc1 [DDD88320] | >10 µM | IC50 (human NMT-1; HuNMT-1): > 100 µM |
| 0.83 µM | – | Cc1nn(C)c(C)c1N(C)[S+](=O)([O-])c1ccc(CCCCCn2ccnc2)cc1 [DDD99735] | >1 µM | IC50 (human NMT-1; HuNMT-1): 2.9 µM |
| > 1 µM | – | Cc1nn(C)c(C)c1N[S+](=O)([O-])c1cccc(CCCN2CCN(C)CC2)c1 [DDD88640] | 18.7 µM | IC50 (human NMT-1; HuNMT-1): > 1 µM |
| 66.1 µM | – | Cc1nn(C)c(C)c1N[S+](=O)([O-])c1ccc(COCCCN(C)C)cc1 [DDD85647] | >1 µM | – |
| 0.004 µM | – | Cc1nn(C)c(C)c1N[S+](=O)([O-])c1ccc(-c2cccc(CC3CCN(C)CC3)c2)cc1 [DDD90107] | 0.040 µM | – |
| 1 µM | – | CNCCNc1cc(-c2cc(Cl)c([S+](=O)([O-])Nc3c(C)nn(C)c3C)c(Cl)c2)ccn1 [DDD86297, 2,6-Dichloro-4-[2-(2-methylamino-ethylamino)-pyridin-4-yl]-N-(1,3,6-trimethyl-1H-pyrazol-4-yl)-benzenesulfonamide] | >1 µM | – |
| 1 µM | – | Cc1nn(C)c(C)c1NS(=O)(=O)c1c(Cl)cc(-c2ccnc(NCCNc3ccccn3)c2)cc1Cl [DDD86302, 2,6-Dichloro-4-{2-[2-(pyridin-2-ylamino)-ethylamino]pyridin-4-yl}-N-(1,3,5-trimethyl-1 H-pyrazol-4-yl)-benzenesulfonamide] | >1 µM | – |
| 0.045 µM | – | Cc1ccnc(C)c1N[S+](=O)([O-])c1c(Cl)cc(-c2ccnc(N3CCNCC3)c2)cc1Cl [DDD88319] | 0.69 µM | – |
| 0.008 µM | – | CCN(CC)Cc1cccc(-c2cc(Cl)c([S+](=O)([O-])Nc3c(CC(C)C)nn(C)c3C)c(Cl)c2)c1 [DDD99747] | 0.067 µM | – |

Second part, the compound before the results:

| SMILES | IC50 [1, 3] | IC50 [1, 7] | ED50 (μM) T. brucei ([2]; T. brucei cell growth) | also measured |
| --- | --- | --- | --- | --- |
| Cc1nn(C)c(C)c1N(CC(F)(F)F)[S+](=O)([O-])c1c(Cl)cc(CCCN2CCN(C)CC2)cc1Cl [DDD100149] | – | – | – | IC50 [1, 4]: 0.014 µM; IC50 (human NMT-1; [5]): 2.4 µM; ED50 (μM) T. brucei [2, 6]: 0.132 µM |
| Cc1c(N[S+](=O)([O-])c2ccc(-c3cccc(CNCCc4ccccc4)c3)cc2)c(CC(C)C)nn1C [DDD100139] | – | – | – | IC50 [1, 4]: 1.4 µM; IC50 (human NMT-1; [5]): 2.3 µM; ED50 (μM) T. brucei [2, 6]: >1 µM |
| Cc1nn(C)c(C)c1N[S+](=O)([O-])c1ccc(N2CCN(c3ccc(F)cc3)CC2)nc1 [DDD73230] | – | 10.7 µM | >1 µM | – |
| Cc1nn(C)c(C)c1N[S+](=O)([O-])c1ccc2c(c1)CCC(=O)N2 [DDD71247] | – | 3.4 µM | >1 µM | – |
| Cc1nn(C)c(C)c1N[S+](=O)([O-])c1ccc(N2CCOCC2)nc1 [DDD71274] | – | 2 µM | >1 µM | – |
| COc1cc(C)c([S+](=O)([O-])Nc2ccncn2)c(C)c1C [DDD71295] | – | 30 µM | >1 µM | – |
| COc1cc(C)c([S+](=O)([O-])N2CCCc3ncccc32)c(C)c1C [DDD71600] | – | 51 µM | >1 µM | – |
| Cc1nn(C)c(C)c1N[S+](=O)([O-])c1ccc(NCCCN2CCN(Cc3ccccc3)CC2)nc1 [DD86299] | 1 µM | – | >1 µM | – |
| Cc1nn(C)c(C)c1N[S+](=O)([O-])c1ccc2c(c1)CC(=O)N2 [DDD71244] | – | 15.9 µM | >1 µM | – |
| Cc1nn(C)c(C)c1N[S+](=O)([O-])c1ccc(CNCCN2CCCCC2)cc1 [DDD85643] | 8 µM | – | >1 µM | – |
| Cc1nn(C)c(C)c1N[S+](=O)([O-])c1ccc(NCCCc2ccccc2)nc1 [DDD73327] | – | 2.8 µM | >1 µM | – |
| Cc1nn(C)c(C)c1N[S+](=O)([O-])c1ccc(Cl)c(Cl)c1 [DDD00071594] | – | 9.9 µM | >1 µM | – |
| Cc1nn(C)c(C)c1N[S+](=O)([O-])c1sc2ccc(F)cc2c1C [DDD73221] | – | 6.6 µM | >1 µM | – |
| COc1ccc(OCCC[S+](=O)([O-])Nc2c(C)nn(C)c2C)cc1 [DDD71275] | – | 62 µM | >1 µM | – |
| Cc1cc(C(C)(C)C)cc(C)c1[S+](=O)([O-])Nc1c(C)nn(C)c1C [DDD71243] | – | 0.5 µM | 5.8 µM | – |
| COc1cc(C)c([S+](=O)([O-])Nc2onc(C)c2C)c(C)c1C [DDD71284] | – | > 100 µM | >1 µM | – |

| SMILES | IC50 [1, 3] | IC50 [1, 7] | ED50 (μM) T. brucei ([2]; T. brucei cell growth) | also measured |
| --- | --- | --- | --- | --- |
| Cc1nn(C)c(C)c1N[S+](=O)([O-])c1ccc(NCCc2ccc(-c3ccccc3)cc2)nc1 [DDD73482] | – | 60 µM | >1 µM | – |
| COc1ccc(OC)c([S+](=O)([O-])Nc2c(C)nn(C)c2C)c1 [DDD64750] | – | 30 µM | >1 µM | – |
| Cc1nn(C)c(C)c1N[S+](=O)([O-])c1ccc(Nc2ccccc2)nc1 [DDD73480] | – | 4.5 µM | 22.1 µM | – |
| COc1cc(C)c([S+](=O)([O-])Nc2ccc(C)nc2C)c(C)c1C [DDD85634] | 27.9 µM | – | >1 µM | – |
| Cc1nn(C)c(C)c1N[S+](=O)([O-])c1ccc(C(C)C)cc1 [DDD71241] | – | 1.5 µM | >1 µM | – |
| Cc1nn(C)c(C)c1N[S+](=O)([O-])c1ccc(Cn2cnc(-c3ccccc3)c2)cc1 [DDD73503] | – | 2.5 µM | 10.5 µM | – |
| COc1ccc([S+](=O)([O-])Nc2c(C)nn(C)c2C)cc1OC [DDD71290] | – | 41 µM | >1 µM | – |
| Cc1nn(C)c(C)c1N(CC1CC1)[S+](=O)([O-])c1c(Cl)cc(Br)cc1Cl [DDD85625] | – | 0.67 µM | 4.6 µM | – |
| Cc1nn(C)c(C)c1N[S+](=O)([O-])c1ccc(-c2ccccc2)cc1 [DDD71297] | – | 10.5 µM | >1 µM | – |
| Cc1nn(C)c(C)c1N[S+](=O)([O-])c1c(Cl)cc(-c2cccc(OCC(C)C)c2)cc1Cl [DDD73272] | – | 35 µM | >1 µM | – |
| Cc1nn(C)c(C)c1N[S+](=O)([O-])c1ccc(NCCCN(C)C)nc1 [DDD85629] | – | 2.4 µM | 38.0 µM | – |
| Cc1nc(-c2ccc([S+](=O)([O-])Nc3c(C)nn(C)c3C)cc2)cs1 [DDD71278] | – | 12.1 µM | >1 µM | – |
| COc1ccc([S+](=O)([O-])Nc2c(C)nn(C)c2C)cc1 [DDD71286] | – | 9.8 µM | >1 µM | – |
| Cc1nn(C)c(C)c1NS(=O)(=O)c1ccc(-c2ccnc(N3CCNC(c4ccccc4)C3)c2)cc1 (stereo not shown) [DDD87756, 4-[2-(3-Phenyl-piperazin-1-yl)-pyridin-4-yl]-N-(1,3,5-trimethyl-1H-pyrazol-4-yl)-benzenesulfonamide] | – | – | >1 µM | IC50 ([1]; read-out: IC50 (μM) NMT Enzyme): 0.76 µM |
| Cc1nn(C)c(C)c1N[S+](=O)([O-])c1ccc(COCCn2ccnc2)cc1 [DDD85628] | – | 11.1 µM | >1 µM | – |
